According to ChEMBL document CHEMBL1201862, “PubChem BioAssay data set” (2004):
Calls of active or inactive are those of the source.

Legend:
[1] = Vero cell cytotoxicity, dose response, cytotoxicity control for M. tuberculosis growth inhibitor project, Vero cells, purified and synthesized compounds, set 4 (AID 504854); type: functional; conditions: Mycobacterium tuberculosis
[2] = biological target: T1, Orexin/Hypocretin receptor type 1 (Homo sapiens, UniProt O43613); assay: Homogeneous Time Resolved Fluorescence (HTRF)-based cell-based high throughput dose response assay for antagonists of the orexin 1 receptor (OX1R; HCRTR1). [Related pubchem assays (depositor defined):AID434989, AID435008, AID463079, AID485270, AID492963, AID492964, AID492965, AID493232, AID504717, AID504718]; type: functional
T1 sequence (O43613 whole entry): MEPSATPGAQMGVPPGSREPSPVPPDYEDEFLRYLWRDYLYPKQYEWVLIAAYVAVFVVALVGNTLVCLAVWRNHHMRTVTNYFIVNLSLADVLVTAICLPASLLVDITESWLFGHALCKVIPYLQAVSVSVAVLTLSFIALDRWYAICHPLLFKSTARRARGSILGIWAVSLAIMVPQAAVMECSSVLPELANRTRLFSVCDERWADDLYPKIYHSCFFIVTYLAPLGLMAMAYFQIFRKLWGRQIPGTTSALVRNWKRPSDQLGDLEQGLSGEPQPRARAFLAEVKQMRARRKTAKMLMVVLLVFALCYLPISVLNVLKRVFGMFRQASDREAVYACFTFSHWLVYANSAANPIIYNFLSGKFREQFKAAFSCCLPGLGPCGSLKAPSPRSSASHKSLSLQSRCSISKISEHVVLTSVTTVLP

[3] = biological target: T1, Orexin/Hypocretin receptor type 1; assay: Fluorescence-based cell-based high throughput dose response assay for antagonists of the orexin 1 receptor (OX1R; HCRTR1). [Related pubchem assays (depositor defined):AID434989, AID435008, AID463079, AID485270, AID492963, AID492964, AID492965, AID493232, AID504717, AID504718]; type: functional
CHO-K1 = assay: (§1) Counterscreen for antagonists of the orexin 1 receptor (OX1R; HCRTR1): Homogeneous time resolved fluorescence (HTRF)-based cell-based dose response assay to identify antagonists of the parental CHO-K1 cell line. [Related pubchem assays (depositor defined):AID434989, AID435008, AID463079, AID485270, AID492963, AID492964, AID492965, AID493232, AID504699, AID504701]; type: functional; conditions: Cricetulus griseus
Orexin receptor type 2 [4] = biological target: T2, Orexin receptor type 2 (Homo sapiens, UniProt O43614); assay: Counterscreen assay for antagonists of the orexin 1 receptor (OX1R; HCRTR1): Homogeneous Time Resolved Fluorescence (HTRF)-based cell-based dose response assay for antagonists of the orexin 2 receptor (OX2R; HCRTR2), run by assay provider.; type: functional
T2 sequence (O43614 whole entry): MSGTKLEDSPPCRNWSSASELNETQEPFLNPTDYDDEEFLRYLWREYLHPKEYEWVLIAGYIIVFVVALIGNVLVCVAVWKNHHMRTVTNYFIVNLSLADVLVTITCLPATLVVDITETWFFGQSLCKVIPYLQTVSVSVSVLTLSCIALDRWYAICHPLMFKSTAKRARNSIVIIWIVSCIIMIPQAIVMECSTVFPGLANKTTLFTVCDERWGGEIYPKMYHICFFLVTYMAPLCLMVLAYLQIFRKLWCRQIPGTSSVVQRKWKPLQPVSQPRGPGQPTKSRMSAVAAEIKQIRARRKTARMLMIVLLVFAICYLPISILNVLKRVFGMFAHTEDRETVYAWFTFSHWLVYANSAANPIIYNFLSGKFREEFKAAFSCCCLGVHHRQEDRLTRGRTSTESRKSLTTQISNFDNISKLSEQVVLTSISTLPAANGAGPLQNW

Orexin receptor type 2 [5] = biological target: T2, Orexin receptor type 2; assay: Counterscreen assay for antagonists of the orexin 1 receptor (OX1R; HCRTR1): Fluorescence-based cell-based dose response assay for antagonists of the orexin 2 receptor (OX2R; HCRTR2), run by assay provider.; type: functional
[6] = as §1, with “Fluorescence-based” for “Homogeneous time resolved fluorescence (HTRF)-based”, “cell-based high throughput” for “cell-based”, “CHO” for “CHO-K1”; type: functional
Streptococcus = assay: Group A Streptococcus viability loss, dose response, counter-screen for streptokinase expression inhibitor project, luminescence, BacTiterGlo (AID 1915); type: functional, organism-based;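 further: potency for reduction of bacterial viability or growth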
[7] = tested on: Streptococcus sp. 'group A'; assay: growth inhibition of control SK(-) GAS strain, dose response, counter-screen for streptokinase expression inhibitor project, luminescence, kanamycin, BacTiterGlo, confirmation (AID 1900); type: functional, organism-based
[8] = biological target: T3, Acyl-homoserine lactone acylase PvdQ (Pseudomonas aeruginosa (strain LESB58), UniProt Q9I194); assay: P. aeruginosa PvdQ acylase inhibitors, dose response, biochemical, fluorescence, plate reader and imaging, cherry-picks (AID 493231)
T3 sequence (Q9I194 whole entry): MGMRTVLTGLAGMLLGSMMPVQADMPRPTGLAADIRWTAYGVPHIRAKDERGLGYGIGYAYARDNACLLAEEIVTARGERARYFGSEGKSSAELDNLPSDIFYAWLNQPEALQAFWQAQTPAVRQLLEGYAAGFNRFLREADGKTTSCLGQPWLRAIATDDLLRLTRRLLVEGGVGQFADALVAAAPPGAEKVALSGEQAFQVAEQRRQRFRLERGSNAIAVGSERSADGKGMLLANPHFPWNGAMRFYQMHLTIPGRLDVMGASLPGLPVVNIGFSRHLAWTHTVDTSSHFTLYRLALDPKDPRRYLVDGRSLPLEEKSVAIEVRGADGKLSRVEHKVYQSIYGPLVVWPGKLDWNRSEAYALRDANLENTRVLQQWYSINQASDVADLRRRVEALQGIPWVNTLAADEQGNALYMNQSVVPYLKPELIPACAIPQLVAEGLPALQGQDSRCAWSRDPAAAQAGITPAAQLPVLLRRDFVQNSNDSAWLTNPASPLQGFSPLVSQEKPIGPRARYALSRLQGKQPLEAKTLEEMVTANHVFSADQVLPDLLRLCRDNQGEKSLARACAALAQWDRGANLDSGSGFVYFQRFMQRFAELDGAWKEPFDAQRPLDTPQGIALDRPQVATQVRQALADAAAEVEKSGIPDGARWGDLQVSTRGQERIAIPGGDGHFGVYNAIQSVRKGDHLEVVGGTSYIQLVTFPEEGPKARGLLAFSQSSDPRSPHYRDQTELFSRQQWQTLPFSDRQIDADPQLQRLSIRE

HEK293 = assay: inhibitors of LMP1-driven NF-kB reporter, dose response, cell-based, HEK293, luciferase, cherry-pick (AID 588343); type: functional; conditions: Homo sapiens
[9] = biological target: Latent membrane protein 1 (Human herpesvirus 4 (strain B95-8), UniProt P03230); assay: TES1-eGFP NF-kB reporter inhibition versus Tet-On dsRED, dose response, selectivity assay for LMP1 NF-kB inhibitor project, imaging, HEK293T, dual-color eGFP/dsRED, cherry-picks (AID 588398); type: functional, cell-based
Chain of Latent membrane protein 1 (P03230 whole entry): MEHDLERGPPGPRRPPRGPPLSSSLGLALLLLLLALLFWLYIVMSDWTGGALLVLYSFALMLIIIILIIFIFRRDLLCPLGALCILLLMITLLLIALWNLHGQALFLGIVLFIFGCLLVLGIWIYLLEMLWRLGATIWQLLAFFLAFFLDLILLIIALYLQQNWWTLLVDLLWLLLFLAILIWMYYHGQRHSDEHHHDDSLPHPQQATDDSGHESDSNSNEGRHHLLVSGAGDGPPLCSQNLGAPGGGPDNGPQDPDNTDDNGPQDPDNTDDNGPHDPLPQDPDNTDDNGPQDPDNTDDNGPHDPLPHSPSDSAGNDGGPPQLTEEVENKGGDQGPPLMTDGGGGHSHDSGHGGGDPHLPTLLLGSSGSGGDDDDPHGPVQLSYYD

For CCC(Sc1nc(O)c2c(n1)CCC2)C(=O)Nc1cccc(OC)c1 (configuration not stated), which CC50 [1] is on record?
The CC50 was > 100 µM (active).

Which results are given for CCSc1nnc(NC(=O)c2ccc3ccccc3n2)s1?
IC50 [2]: 2.67 µM (active); IC50 [3]: 6.86 µM (active); IC50 (CHO-K1): > 66.2 µM (inactive); IC50 (Orexin receptor type 2 [4]): > 50 µM (inactive); IC50 (Orexin receptor type 2 [5]): > 88.8 µM (inactive); IC50 [6]: > 49.7 µM (inactive); EC50 (Streptococcus): 6.46 µM (active); EC50 [7]: 2.08 µM (active)

For Cc1cc(NC(=O)c2ccc3c(c2)OCCO3)no1, which AC50 [8] is on record?
The AC50 was 49.6 µM (active).

What about the AC50 (HEK293) of the same compound?
The AC50 was 4.15 µM (active).

What about the AC50 [9] of the same compound?
Its AC50 is 32.7 µM (active).
